Experimental findings from patent publication US12365674B2, “Inhibitors of histone deacetylase useful for the treatment or prevention of HIV infection” (Merck Sharp & Dohme LLC, priority 2019, dated 2025) are described below.

The target of the assay is T1, HDAC6 (Homo sapiens, UniProt Q9UBN7).
T1 sequence (Q9UBN7 1-1215): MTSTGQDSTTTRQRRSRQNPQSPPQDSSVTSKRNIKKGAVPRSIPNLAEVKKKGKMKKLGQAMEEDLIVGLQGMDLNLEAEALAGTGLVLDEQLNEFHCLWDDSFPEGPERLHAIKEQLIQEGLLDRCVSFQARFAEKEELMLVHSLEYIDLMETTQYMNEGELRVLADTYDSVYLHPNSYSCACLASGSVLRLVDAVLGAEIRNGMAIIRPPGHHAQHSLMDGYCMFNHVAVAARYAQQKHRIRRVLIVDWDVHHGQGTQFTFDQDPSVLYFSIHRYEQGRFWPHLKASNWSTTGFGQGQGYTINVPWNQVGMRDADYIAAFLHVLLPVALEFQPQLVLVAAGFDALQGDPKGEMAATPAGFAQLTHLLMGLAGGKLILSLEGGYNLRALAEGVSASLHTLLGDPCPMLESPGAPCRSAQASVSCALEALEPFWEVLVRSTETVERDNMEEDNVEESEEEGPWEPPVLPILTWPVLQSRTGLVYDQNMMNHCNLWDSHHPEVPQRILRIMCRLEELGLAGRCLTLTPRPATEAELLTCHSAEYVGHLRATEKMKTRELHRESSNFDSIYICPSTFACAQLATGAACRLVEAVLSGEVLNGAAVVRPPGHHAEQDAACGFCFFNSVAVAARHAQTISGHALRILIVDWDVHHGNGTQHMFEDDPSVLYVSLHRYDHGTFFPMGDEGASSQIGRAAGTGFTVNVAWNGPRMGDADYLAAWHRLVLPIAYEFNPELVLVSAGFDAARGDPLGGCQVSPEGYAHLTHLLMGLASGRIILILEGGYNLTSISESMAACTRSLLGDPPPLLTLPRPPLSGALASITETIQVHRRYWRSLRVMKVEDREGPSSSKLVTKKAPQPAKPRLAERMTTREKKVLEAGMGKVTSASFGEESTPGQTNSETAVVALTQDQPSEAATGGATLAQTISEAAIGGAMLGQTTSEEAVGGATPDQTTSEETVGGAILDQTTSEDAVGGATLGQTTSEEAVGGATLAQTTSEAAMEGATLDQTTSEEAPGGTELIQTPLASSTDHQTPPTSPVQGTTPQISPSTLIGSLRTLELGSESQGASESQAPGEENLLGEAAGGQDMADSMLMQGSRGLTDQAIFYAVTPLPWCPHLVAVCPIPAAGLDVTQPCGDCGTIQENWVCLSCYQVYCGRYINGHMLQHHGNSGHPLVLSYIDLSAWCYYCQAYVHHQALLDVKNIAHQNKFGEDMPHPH
Put plainly: Human HDAC enzyme inhibitor Fluor-de-Lys assay, HDAC6. As to conditions: 1.3 nM enzyme, 2.5 μM substrate BML-KI104, 3 h pre-incubation, 60 min reaction; read-out: HDAC6_IC50. It is filed as biochemical. The text has this:
Recombinant human HDAC8 (catalog number BML-SE145-0100) and HDAC10 (catalog number BML-SE559-0050) enzymes, HDAC substrates BML-KI104 and BML-KI178, and HDAC developer solutions BML-KI105 and BML-KI176 were purchased from Enzo Life Sciences (Farmingdale, NY). Recombinant human HDAC5 and HDAC11 were purchased from BPS Bioscience (San Diego, CA)(catalog numbers 50045 and 50021). Substrate Boc-Lys(TFA)-AMC was obtained from Bachem (Bupendorf, Switzerland) (catalog number 1-1985). HDAC inhibitor suberoylanilide hydroxamic acid (SAHA) was obtained from Indofine (Hillsborough Township, NJ) and trichostatin A (TSA) was obtained from Sigma-Aldrich (St. Louis, MO). […] HEPES pH 8.0 was obtained from Boston BioProducts (Ashland, MA), Tween-20 from Fisher Scientific (Hampton, NH)(catalog number BP337), TCEP from Calbiochem and 7.5% bovine serum albumin (BSA) from Life Technologies (Carlsbad, CA) (catalog number 15260037). 384-well, black assay plates were obtained from Corning (Corning, NY) (catalog number 3575).
The histone deacetylase activities of HDAC1, HDAC2, HDAC3, HDAC6, and HDAC8 were measured in modified Fluor-de-Lys assays in 384-well format. In this assay, HDAC enzymes are initially incubated with an ε-acetyl (or -trifluoroacetyl)-L-lysine-containing substrate with a C-terminal amide having aminomethylcoumarin as the amine component. HDACs cleave the ε-acetyl group, rendering the resulting product susceptible to AMC cleavage by trypsin. The released AMC is then detected by its fluorescence.
The HDAC 1, 2 assays employed buffer A, which contained 20 mM HEPES, pH 8.0, 1 mM MgCl2, 137 mM NaCl, 2.7 mM KCl, 0.05% BSA. The HDAC3/SMRT assay employed buffer B, consisting of 20 mM HEPES, pH 8.0, 1 mM MgCl2, 50 mM NaCl, 2.7 mM KCl, 0.05% BSA, 0.005% Tween 20, and 10 μM IP4. The HDAC6 assay employed buffer C, consisting of 20 mM HEPES, pH 8.0, 1 mM MgCl2, 137 mM NaCl, 2.7 mM KCl, 0.5 mM TCEP (Calbiochem) and 0.05% BSA. The HDAC8 assay employed buffer D, consisting of 20 mM HEPES, pH 8.0, 1 mM MgCl2, 100 mM NaCl, 20 mM KCl, 0.1% n-octyl-β-D-glucoside (Anatrace, Maumee, OH) and 0.05% BSA. All steps were performed at room temperature (23° C.). The assay was performed by pre-incubating serial dilutions of test compounds with the target HDAC prior to initiation with substrate. Each compound was titrated in a 10-point dose response, using a 1:3 fold dilution scheme, with 0.15 ul of solution added by ECHO555 to the plate, followed by the addition of 20 μl of the appropriate HDAC isoform diluted in appropriate assay buffer. […] Final conditions used for each assay were: 1. HDAC 1, 0.3 nM total enzyme, 20 μM substrate BML-K1104; 2. HDAC 2, 1.5 nM total enzyme, 40 μM substrate BML-K1104; 3. HDAC 3/SMRT, 0.3 nM total enzyme, 20 μM substrate BML-K1104; 4. HDAC 6, 1.3 nM total enzyme, 2.5 μM substrate BML-K1104; 5. HDAC 8, 1.3 nM total enzyme, 200 μM substrate BML-K1178; the final high dose of test compound was 30 μM. For potent compounds, 900 nM was used as the final high dose. The reactions were stopped and developed by addition of 30 ul of HDAC developer solution containing a saturating level of HDAC inhibitor as follows: 1.
As for `COc1nc2ccccc2cc1-c1cnc([C@H](COCCCC(=O)c2ccon2)NC(=O)CN(C)C)[nH]1` [Compound 14, N-{(1R)-2-(4-isoxazol-3-yl-4-oxobutoxy)-1-[5-(2-methoxyquinolin-3-yl)-1H-imidazol-2-yl]ethyl}-N~2~,N~2~- dimethylglycinamide], the IC50 was greater than 45 µM.

Consider `COc1nc2ccccc2cc1-c1cnc([C@H](COCCCC(=O)c2ncco2)NC(=O)CN(C)C)[nH]1` [Compound 13, N-{(1R)-1-[5-(2-methoxyquinolin-3-yl)-1H-imidazol-2-yl]-2-[4-(1,3-oxazol-2-yl)-4-oxobutoxy]ethyl}-N~2~,N~2~- dimethylglycinamide], for which the IC50 was greater than 45 µM.

On to `COc1nc2ccccc2cc1-c1cnc([C@H](COCCCC(=O)c2ncco2)NC(=O)C23CCN(CC2)CC3)[nH]1` [Compound 12, N-{(1R)-1-[5-(2-methoxyquinolin-3-yl)-1H-imidazol-2-yl]-2-[4-(1,3-oxazol-2-yl)-4-oxobutoxy]ethyl}-1-azabicyclo[2.2.2]octane-4-carboxamide], for which the IC50 is greater than 45 µM.

As for `COc1cc2nc(C)ccc2cc1-c1cnc([C@H](COCCCC(=O)c2cc(C)on2)NC(=O)C2CN(C)C2)[nH]1` [Compound 19, N-{(1R)-1-[5-(7-methoxy-2-methylquinolin-6-yl)-1H-imidazol-2-yl]-2-[4-(5-methylisoxazol-3-yl)-4-oxobutoxy]ethyl}-1-methylazetidine-3-carboxamide], the IC50 is 0.469 µM.

Take `CN1CC(C(=O)N[C@@H](COCCCC(=O)c2ccon2)c2ncc(-c3ccccc3F)[nH]2)C1` [Compound 15, N-[(1R)-1-[5-(2-fluorophenyl)-1H-imidazol-2-yl]-2-(4-isoxazol-3-yl-4-oxobutoxy)ethyl]-1-methylazetidine-3-carboxamide]: the IC50 was greater than 0.9 µM.

On to `CN1CC(C(=O)N[C@@H](COCCCC(=O)c2ccon2)c2[nH]c(-c3ccc(F)cc3)nc2Cl)C1` [Compound 16, N-[(1R)-1-[4-chloro-2-(4-fluorophenyl)-1H-imidazol-5-yl]-2-(4-isoxazol-3-yl-4-oxobutoxy)ethyl]-1-methylazetidine-3-carboxamide], for which the IC50 was greater than 0.9 µM.

Turning to `COc1cc2nc(C)ccc2cc1-c1cnc([C@H](COCCCC(=O)c2cc(C)on2)NC(=O)[C@H]2CC23CCN(C)CC3)[nH]1` [Compound 20, (1S)-N-{(1R)-1-[5-(7-methoxy-2-methylquinolin-6-yl)-1H-imidazol-2-yl]-2-[4-(5-methylisoxazol-3-yl)-4-oxobutoxy]ethyl}-6-methyl-6-azaspiro[2.5]octane-1-carboxamide], the IC50 was greater than 0.9 µM.

Take `CCC(=O)CCCOC[C@H](NC(=O)c1cncs1)c1ncc(-c2cc3ccccc3nc2OC)[nH]1` [Compound 5, N-{(1R)-1-[5-(2-methoxyquinolin-3-yl)-1H-imidazol-2-yl]-2-[(4-oxohexyl)oxy]ethyl}-1,3-thiazole-5-carboxamide]: the IC50 is greater than 45 µM.

For `CN1CCC2(CC1)C[C@@H]2C(=O)N[C@@H](COCCCC(=O)c1ccon1)c1[nH]c(-c2ccc(F)cc2)nc1Cl` [Compound 18, (1S)-N-[(1R)-1-[4-chloro-2-(4-fluorophenyl)-1H-imidazol-5-yl]-2-(4-isoxazol-3-yl-4-oxobutoxy)ethyl]-6-methyl-6-azaspiro[2.5]octane-1-carboxamide], the IC50 is greater than 0.9 µM.

Take `Cc1ccc2cc(-c3cnc([C@H](CSCCCC(=O)c4ncco4)NC(=O)[C@H]4CC45CCN(C)CC5)[nH]3)ccc2n1` [Compound 21, (1S)-6-methyl-N-[(1R)-1-[5-(2-methylquinolin-6-yl)-1H-imidazol-2-yl]-2-{[4-(1,3-oxazol-2-yl)-4-oxobutyl]sulfanyl}ethyl]-6-azaspiro[2.5]octane-1-carboxamide]: the IC50 was 19.3 µM.

As to `CCC(=O)CCCOC[C@H](NC(=O)[C@H]1CC12CCN(CC)CC2)c1ncc(-c2cc3ccccc3nc2OC)[nH]1` [Compound 7, (1S)-6-ethyl-N-{(1R)-1-[5-(2-methoxyquinolin-3-yl)-1H-imidazol-2-yl]-2-[(4-oxohexyl)oxy]ethyl}-6-azaspiro[2.5]octane-1-carboxamide], the IC50 amounted to 19 µM.

Regarding `N[C@@H](COCCCC(=O)c1ccon1)c1ncc(-c2ccccc2F)[nH]1` [Compound 2, (R)-4-(2-amino-2-(5-(2-fluorophenyl)-1H-imidazol-2-yl)ethoxy)-1-(isoxazol-3-yl)butan-1-one], the IC50 was greater than 0.9 µM.

With `CCC(=O)CCCOC[C@H](NC(=O)C12CCN(CC1)CC2)c1ncc(-c2cc3ccccc3nc2OC)[nH]1` [Compound 6, N-{(1R)-1-[5-(2-methoxyquinolin-3-yl)-1H-imidazol-2-yl]-2-[(4-oxohexyl)oxy]ethyl}-1-azabicyclo[2.2.2]octane-4-carboxamide], the IC50 was greater than 45 µM.

Turning to `CN(C)CC(=O)N[C@@H](COCCCC(=O)c1ccon1)c1[nH]c(-c2ccc(F)cc2)nc1Cl` [Compound 17, N-[(1R)-1-[4-chloro-2-(4-fluorophenyl)-1H-imidazol-5-yl]-2-(4-isoxazol-3-yl-4-oxobutoxy)ethyl]-N~2~,N~2~- dimethylglycinamide], the IC50 is greater than 0.9 µM.

In the case of `COc1nc2ccccc2cc1-c1cnc([C@H](COCCCC(=O)c2ncco2)NC(=O)c2cncs2)[nH]1` [Compound 10, N-{(1R)-1-[5-(2-methoxyquinolin-3-yl)-1H-imidazol-2-yl]-2-[4-(1,3-oxazol-2-yl)-4-oxobutoxy]ethyl}-1,3-thiazole-5-carboxamide], the IC50 was greater than 45 µM.

On to `CNC(=O)C(=O)CCCOC[C@H](NC(=O)C12CCN(CC1)CC2)c1ncc(-c2cc3ccccc3nc2OC)[nH]1` [Compound 9, N-[(1R)-1-[5-(2-methoxyquinolin-3-yl)-1H-imidazol-2-yl]-2-{[5-(methylamino)-4,5-dioxopentyl]oxy}ethyl]-1-azabicyclo[2.2.2]octane-4-carboxamide], for which the IC50 is greater than 45 µM.
